pIC50: −log10 of the molar value. Read-outs that look alike come from different tables or passages of the source.
Columns and labels:
[1] = test system: enzyme decomposing R--Val--Val--X--Ala--X to Val--X--Ala--X; assay: Effect of various inhibitors and metal ions on enzyme activity; format: biochemical, Bacillus sphaericus ATCC 14577
mice [2] = assay: Acute toxicity by abdominal injection; format: in vivo
Description: (§1) As an example of one of the physiological activities of the peptide and N-acyl derivatives thereof obtained according to the present invention, anti-pepsin and anti-cathepsin D activities and also acute toxicity are given in Table 8. The activities (ID50) were assayed according to the method described above and The Journal of Antibiotics 25 689 (1972). The anti-protease activities of the peptide and N-acyl derivatives thereof are extremely high.
Acute toxicity was examined by administering the compounds to the mice by
(§2) The peptide Val--X--Ala--X and its N-acyl derivatives according to this invention have low toxicity; mice, dogs, rats and rabbits tolerated oral administration of more than 2.000 mg/kg. of the compounds, and LD50 of the compounds for animals when administered by intraperitoneal injections are shown in Table 8. Daily 250 mg/kg oral administrations of each of the compounds to rats for 90 days caused no toxicity, and the rats grew at the normal growth rate.

Cathepsin D = Cathepsin D (Homo sapiens, UniProt P07339); assay: anti-cathepsin D activity; format: biochemical
Chain of Cathepsin D (P07339 65-412, species assumed): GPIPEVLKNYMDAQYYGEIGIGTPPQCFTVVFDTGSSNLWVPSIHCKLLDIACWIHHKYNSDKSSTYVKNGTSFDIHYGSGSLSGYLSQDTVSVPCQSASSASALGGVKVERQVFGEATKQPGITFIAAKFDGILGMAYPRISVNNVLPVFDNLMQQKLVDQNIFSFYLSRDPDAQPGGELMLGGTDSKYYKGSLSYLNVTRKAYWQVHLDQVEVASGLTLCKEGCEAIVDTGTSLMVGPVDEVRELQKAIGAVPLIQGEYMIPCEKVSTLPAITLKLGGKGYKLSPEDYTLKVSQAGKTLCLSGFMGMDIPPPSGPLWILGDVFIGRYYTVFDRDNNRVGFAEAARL
Description: as §1

rabbits = assay: Tolerated oral administration; format: in vivo
Description: as §2

rats = assay: Tolerated oral administration; format: in vivo
Description: as §2

dogs = assay: Tolerated oral administration; format: in vivo
Description: as §2

mice [3] = assay: Tolerated oral administration; format: in vivo
Description: as §2

Solubility in solvents = format: physicochemical
[4] = test system: enzyme decomposing R--Val--Val--X--Ala--X to Val--X--Ala--X; assay: Substrate specificity of the purified enzyme; format: biochemical, Bacillus sphaericus ATCC 14577; conditions: in words
Description: A medium having the same composition as in Experiment 1 was prepared and 50 ml of the medium was poured into a 500 ml flask. After sterilization at 120° C for 10 minutes, the medium was inoculated with Bacillus sphaericus ATCC 14577 and incubated on a reciprocal shaker (120 r.p.m.) at 30° C for 24 hours to obtain a seed culture. To a 20l jar fermentor was added to 10l of the medium having the same composition, sterilized at 120° C for 15 minutes and inoculated with the seed culture. The cultivation was performed at 30° C with agitation (300 r.p.m.) and aeration (5l/minute).
After 15 hours growth, isovalery-L-valvy-L-valyl-4-amino-3-hydroxy-6-methylheptanoyl-L-alanyl-4-amino-3-hydroxy-6-methylheptanoic acid was added to the culture in a concentration of 50 meg/ml and the cultivation was continued for another 33 hours. Cells were harvested by centrifugation with a Spharpless centrifuge, suspended in 2l of cold 0.01M phosphate buffer, pH 7.0, and disrupted by sonication 20 Kc for 2 minutes. These and the following procedures were carried out under 4° C. A supernatant from the sonicate was heated at 60° C for 10 minutes at pH 7.0. The resulting precipitate was removed by centrifugation and 3.8 g of streptomycin sulfate was added to 1.7l of the supernatant. Precipitated nucleic acid was removed by centrifugation. […]

pepsin = molecular target: T1, pepsin (Sus scrofa, UniProt P00791); assay: Assay of pepsin-inhibitory activity (casein digestion); format: biochemical
T1 construct: purchased SIGMA 2XCRY (grade as printed; no catalogue number)
T1 sequence (P00791 60-385): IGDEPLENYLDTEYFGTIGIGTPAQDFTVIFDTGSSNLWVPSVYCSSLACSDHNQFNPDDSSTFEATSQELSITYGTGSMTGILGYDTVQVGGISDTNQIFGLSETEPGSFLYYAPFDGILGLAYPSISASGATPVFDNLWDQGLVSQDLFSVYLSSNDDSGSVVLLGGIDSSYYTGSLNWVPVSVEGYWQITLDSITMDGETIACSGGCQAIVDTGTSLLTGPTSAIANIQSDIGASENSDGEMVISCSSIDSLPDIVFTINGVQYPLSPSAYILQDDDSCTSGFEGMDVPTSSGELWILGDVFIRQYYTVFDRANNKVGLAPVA
Description: Assay of pepsin-inhibitory activity in this invention was performed according to the following method: A mixture of 1 ml of 0.6%, by weight, highly purified case in dissolved in 0.08 M lactate buffer solution, pH 2.2, 0.7 ml of 0.02M KCl--HCl buffer solution, pH 2.0, and 0.2 ml of solution containing the compound sample was incubated at 37° C for 3 minutes. To this mixture 4 meg of pepsin (SIGMA, 2XCRY) dissolved in 0.1 ml of 0.2M KCl--HCl buffer solution were added. The mixture was incubated at 37° C for 30 minutes. The reaction was stopped by the addition of 2.0 ml of 1.7M perchloric acid. After 1 hour at room temperature, the optical density (a) of the supernatant liquid was read at 280 mμ. An inhibition rate was obtained according to:
where (b) is the optical density at 280 mμ of the tube without the sample solution.
The ID50 is defined as the amount necessary for 50% of the inhibition rate.

Stomach ulcers in rats = assay: Stress stomach ulcers in rats (method of Takagi et al.); format: in vivo; conditions: 50 - 200 mg/kg immediately after the stress and once daily for 4 days
Description: Stomach ulcers in rats made by the method described by Takagi et al. in the Japanese Journal of Pharmacology, 18, 9-19, 1958, that is, placing male rats in a cage at 23° C. for 22 hours, are protected or therapeutically treated by the compounds. […] When the dose was 10 mg/kg, the inhibition percentage of the ulcers was 50 - 60%.

[5] = Concentration 2 mM, control 100
[6] = Concentration 10 mM, control 100

O=C(O)c1cc[c]([Hg][Cl])cc1 [p-Chloromercuribenzoate]
Inhibition of the enzyme [1]: Inhibition | Relative activity [1, 5]: 2

[Cl][Co][Cl] [Cobalt Chloride]
increase in activity ([1]; 2mM): 34% | increase in activity ([1]; 10 mM): 66%

CC(C)CC(NC(=O)[C@H](C)NC(=O)CC(O)C(CC(C)C)NC(=O)[C@@H](NC(=O)COc1ccccc1)C(C)C)C(O)CC(=O)O (stereo partly drawn) [Phenoxyacetyl--Val--X--Ala--X, n--phenoxyacetyl--Val--X--Ala--X]
Acute toxicity(mg/kg) LD50 (mice [2]): 1500 mg/kg | pIC50 (Cathepsin D): 7.90

[Cl-].[Cl-].[Zn+2] [Zinc Chloride]
Relative activity [1, 5]: 66 | Relative activity [1, 6]: 44

[N-]=[N+]=[N-].[Na+] [NaN3]
Relative activity [1]: 100

CC(C)C[C@H](NC(=O)[C@H](C)NC(=O)C[C@H](O)[C@H](CC(C)C)NC(=O)[C@@H](N)C(C)C)[C@@H](O)CC(=O)O [Val--X--Ala--X, L-valyl-4-amino-3-hydroxy-6-methylheptanoyl-L-alanyl-4-amino-3-hydroxy-6-methylheptanoic acid]
Acute toxicity(mg/kg) LD0 (mice [2]): ≥ 5000 mg/kg | tolerated oral administration (rabbits): more than 2.000 mg/kg | tolerated oral administration (rats): more than 2.000 mg/kg | tolerated oral administration (dogs): more than 2.000 mg/kg | tolerated oral administration (mice [3]): more than 2.000 mg/kg | pIC50 (Cathepsin D): 4.89 | solubility (Solubility in solvents; ether, ethyl acetate, and butyl acetate): insoluble | solubility (Solubility in solvents; methanol, ethanol, pyridine, and acetic acid): soluble | solubility (Solubility in solvents; n-proponal, n-butanol, n-amyl alcohol and acetone): slightly soluble

CC(C)CC(=O)N[C@H](C(=O)N[C@@H](CC(C)C)[C@@H](O)CC(=O)N[C@@H](C)C(=O)N[C@@H](CC(C)C)[C@@H](O)CC(=O)O)C(C)C [Isovaleryl--Val--X--Ala--X, N--isovaleryl--Val--X--Ala--]
Acute toxicity(mg/kg) LD0 (mice [2]): ≥ 3000 mg/kg | pIC50 (Cathepsin D): 7.12

CC(C)CC(=O)N[C@H](C(=O)O)C(C)C [IVA--Val]
susceptibility to the enzyme (hydrolysis) [4]: not split

OCCS [β-Mercaptoethanol]
Inhibition of the enzyme ([1]; 2mM): Inhibition | Relative activity [1, 5]: 0

CC(C)C[C@H](NC(=O)[C@H](C)NC(=O)C[C@H](O)[C@H](CC(C)C)NC(=O)[C@@H](NC(=O)C(C)Oc1ccccc1)C(C)C)[C@@H](O)CC(=O)O (stereo partly drawn) [Phenoxypropionyl--Val--X--Ala--X, N--2--phenoxypropionyl--Val--X--Ala--X]
Acute toxicity(mg/kg) LD50 (mice [2]): 2100 mg/kg | pIC50 (Cathepsin D): 7.81

CC(C)C[C@H](NC(=O)[C@H](C)NC(=O)C[C@H](O)[C@H](CC(C)C)NC(=O)[C@@H](NC(=O)c1ccccc1)C(C)C)[C@@H](O)CC(=O)O [Benzoyl--Val--X--Ala--X, N--benzoyl--Val--X--Ala--X]
Acute toxicity(mg/kg) LD50 (mice [2]): 1350 mg/kg | pIC50 (pepsin): 7.29 | pIC50 (Cathepsin D): 7.08

CC(=O)[O-].CC(=O)[O-].[Pb+2] [Lead Acetate]
Relative activity [1]: 43

O=C(O)CI [Monoiodoacetic Acid]
Relative activity [1]: 84

O=C1CCC(=O)N1Br [N-Bromosuccinimide]
Inhibition of the enzyme ([1]; 2mM): Inhibition | Relative activity [1, 5]: 0

CC(C)CC(=O)N[C@H](C(=O)N[C@H](C(=O)N[C@@H](CC(C)C)[C@@H](O)CC(=O)N[C@@H](C)C(=O)N[C@@H](CC(C)C)[C@@H](O)CC(=O)O)C(C)C)C(C)C [pepstatin]
cure of ulcers (Stomach ulcers in rats): rapid cure of ulcers

CCCCCCCCCCCCCCCC(=O)N[C@H](C(=O)N[C@@H](CC(C)C)[C@@H](O)CC(=O)N[C@@H](C)C(=O)N[C@@H](CC(C)C)[C@@H](O)CC(=O)O)C(C)C [Palmitoyl--Val--X--Ala--X, N--palmitoyl--Val--X--Ala--X]
pIC50 (Cathepsin D): 5.83

CC(C)C[C@H](NC(=O)[C@H](C)NC(=O)C[C@H](O)[C@H](CC(C)C)NC(=O)[C@@H](NC(=O)C(C)C)C(C)C)[C@@H](O)CC(=O)O [Isobutyryl--Val--X--Ala--X, N--isobutyryl--Val--X--Ala--X]
pIC50 (Cathepsin D): 6.31

O[C@H](CS)[C@H](O)CS (racemic) [Dithiothreitol]
Inhibition of the enzyme ([1]; 2mM): Inhibition | Relative activity [1, 5]: 0

CC(=O)N[C@H](C(=O)NC(CC(C)C)C(O)CC(=O)N[C@@H](C)C(=O)NC(CC(C)C)C(O)CC(=O)O)C(C)C (stereo partly drawn) [Acetyl--Val--X--Ala--X, N--acetyl--Val--X--Ala--X]
Acute toxicity(mg/kg) LD0 (mice [2]): ≥ 4000 mg/kg | pIC50 (pepsin): 7.24 | pIC50 (Cathepsin D): 6.11

c1cnc2c(c1)ccc1cccnc12 [o-Phenanthroline]
Inhibition of the enzyme ([1]; 2mM): Inhibition | Relative activity [1, 5]: 0

[Ca+2].[Cl-].[Cl-] [Calcium Choride]
increase in activity ([1]; 10 mM): 29% | Relative activity [1, 5]: 110 | Relative activity [1, 6]: 129

[Cl][Hg][Cl] [HgCl2]
Inhibition of the enzyme ([1]; 2mM): Inhibition

CC(=O)[O-].CC(=O)[O-].[Hg+2] [Mercuric Acetate]
Relative activity [1]: 0

O=C(O)CN(CCN(CC(=O)O)CC(=O)O)CC(=O)O [Ethylenediaminetetraacetic Acid]
Relative activity [1, 5]: 30

From US4055468A, “Processes for producing physiologically active peptide and its N-acyl derivatives” (priority 1974, dated 1977)
